The source of these data is patent publication US7354911B2, “1,3-benzodioxol compound and use of same” (Sumitomo Chemical Company, Limited, priority 2006, dated 2008).

This experiment has as its system Musca domestica. The experiment is described as follows: Topical application of acetone solution to female adult Musca domestica, mortality after 24 hours. In kind it is in vivo. Particulars: 0.5 μL acetone solution on back of chest region, 25° C. The method, then: After mixing the present compounds (1), (2), (3), (4), (5), and (6) with d-allethrin respectively, acetone solutions containing each mixture with the respective prescribed concentrations (w/v) listed in Table 2 were prepared. An adult Musca domestica was applied with 0.5 μL of the acetone solution dropped on the back side of its chest region, transferred to a plastic cup having about 9 cm diameter and about 4.5 cm height, and then left at 25° C. with being fed by 5% of aqueous sugar solution. […] The number of the Musca domesticas contained in each cup was 10, and the test was repeated twice.
Furthermore, after preparing acetone solutions containing each of the present compounds (1), (2), (3), (4), (5), and (6) and d-allethrin in the respective prescribed concentrations (w/v) listed in Table 2, a test was conducted as the same manner mentioned above.
For comparison, with using 4,5-methylenedioxy-2-propylphenyl2-butoxyethyl ether (hereinafter, referred to as a comparative compound)
[drawing 16] in place of the present compounds, a test was conducted in the same manner.

Where [1] appears, read: test compound 1.25 % (w/v) alone, d-allethrin 0 % (w/v).
Where [2] appears, read: test compound 1.25 % (w/v) mixed with d-allethrin 0.25 % (w/v).

Turning to `CCCCOCCOc1cc2c(cc1CCC)OCO2` [Comparative compound, 4,5-methylenedioxy-2-propylphenyl2-butoxyethyl ether, reference compound], the mortality ratio reads like this: under setting [1], 0%; under setting [2], 55%.

Turning to `C=CCc1cc2c(cc1OCCOC)OCO2` [The present compound (1), 5-(2-methoxyethoxy)-6-(2-propenyl)-1,3-benzodioxol], the mortality ratio under setting [1] amounted to 0% and the mortality ratio under setting [2] amounted to 100%.

For the molecule `CCCc1cc2c(cc1OCCOC)OCO2` [The present compound (2), 5-(2-methoxyethoxy)-6-propyl-1,3-benzodioxol], the mortality ratio reads like this: under setting [1], 0%; under setting [2], 90%.

Take `C=CCc1cc2c(cc1OCCOCC)OCO2` [The present compound (3), 5-(2-ethoxyethoxy)-6-(2-propenyl)-1,3-benzodioxol]: the mortality ratio runs as follows: under setting [1], 0%; under setting [2], 100%.

In the case of `CCCc1cc2c(cc1OCCOCC)OCO2` [The present compound (4), 5-(2-ethoxyethoxy)-6-propyl-1,3-benzodioxol], the mortality ratio under setting [1] came to 0% and the mortality ratio under setting [2] came to 100%.

Take `C=CCc1cc2c(cc1OCCOCCC)OCO2` [The present compound (5), 5-{2-(propyloxy)ethoxy}-6-(2-propenyl)-1,3-benzodioxol]: the mortality ratio reads like this: under setting [1], 0%; under setting [2], 90%.

As for `CCCOCCOc1cc2c(cc1CCC)OCO2` [The present compound (6), 5-{(2-propyloxy)ethoxy}-6-propyl-1,3-benzodioxol], the mortality ratio under setting [1] was 0% and the mortality ratio under setting [2] turned out to be 80%.

Turning to `C=CCC1=C(C)C(OC(=O)C2C(C=C(C)C)C2(C)C)CC1=O` (stereo not drawn) [d-allethrin, reference compound], under “d-allethrin 0.25 % (w/v) alone, no test compound”, the mortality ratio was 0%.
